{"source": "patent US11684306B2", "about": "“Stable water isotope labeling and magnetic resonance imaging for visualization of the presence of and prediction of the likelihood of occurence of rapidly dividing cells” (THE UNITED STATES OF AMERICA, AS REPRESENTED BY THE …, priority 2016, dated 2023)", "format_in_all_cases": "in vivo", "key": {"[1]": {"assay": "Total body water (TBW) deuterium enrichment in mice", "excerpt": "In one aspect, deuterium labeling was achieved by intraperitoneal injection of 100% ^2H2O with NaCl added to make this fluid isotonic, then maintaining the achieved 5% ^2H enrichment in total body water (TBW) by providing 8% ^2H2O in drinking water to mice. Deuterium within total body water diffuses rapidly into all tissues and is excreted unchanged by the kidneys. Therefore, according to various embodiments, deuterium labeled fluids may be provided to an animal or human subject via injected and/or ingested fluid yielding a deuterium concentration of about 5% TBW. […] Higher TBW enrichments (up to 20% TBW ^2H) may improve sensitivity of dMRI detection. Such enrichments should be safe, as deuterium is non-radioactive, tasteless, colorless and without known side effects at these doses.\nFIG. 9 is an illustration for one embodiment of a scheme 900 for labeling and imaging rapidly dividing cells. As shown, the method begins with total body irradiation (TBI) conditioning performed one day prior to the infusion of a transplant graft (day −1), indicated as 902. In the embodiment shown, the bone marrow transplant (BMT) graft, containing bone marrow stem cells and T cells from the donor spleen, is infused on day 0, indicated as 904. […]\nFor measuring ^2H2O water levels in TBW (e.g. urine), we developed a simple and quantitative headspace-GC-NCI-MS method (publication pending). […]"}, "[2]": {"assay": "Total body water (TBW) deuterium enrichment in people"}, "[3]": {"assay": "Safety of deuterium enrichment in total body water"}}}
{"smiles": "[2H]O[2H]", "note": "[deuterated water]", "values": [{"measurement": "time for TBW deuterium enrichment to return to baseline (0.015%) after supplementation is discontinued", "setting": "[1]", "value": "approximately 7 days"}, {"measurement": "time for TBW deuterium enrichment to return to baseline (0.015%) after supplementation is discontinued", "setting": "[2]", "value": "~14", "unit": "days"}, {"measurement": "toxicity", "setting": "[3]; doses up to 20% in total body water", "value": "non-toxic"}, {"measurement": "safety of higher TBW enrichment", "setting": "[3]; enrichments up to and including approximately 20% TBW", "value": "safely achieved"}, {"measurement": "effect on rates of DNA synthesis", "setting": "[3]; in vivo", "value": "does not affect rates of DNA synthesis"}]}
